Source: US9113631B2, “1,3-diaryl-substituted heterocyclic pesticides” (E I DU PONT DE NEMOURS AND COMPANY, priority 2011, dated 2015)

System: potato leafhopper (Empoasca fabae)
Experiment: Test F: control of potato leafhopper on Soleil bean plant, contact and/or systemic
Assay type: in vivo
Conditions: 144 h, sprayed at 250 ppm, adults on Soleil bean plant, 6 days, 24° C., read-out: control efficacy, very good to excellent: mortality
Experimental: Test compounds were formulated using a solution containing 10% acetone, 90% water and 300 ppm X-77® Spreader Lo-Foam Formula non-ionic surfactant containing alkylarylpolyoxyethylene, free fatty acids, glycols and isopropanol (Loveland Industries, Inc. Greeley, Colo., USA). The formulated compounds were applied in 1 mL of liquid through a SUJ2 atomizer nozzle with 1/8 JJ custom body (Spraying Systems Co., Wheaton, Ill., USA) positioned 1.27 cm (0.5 inches) above the top of each test unit. Test compounds were sprayed at 250 ppm and/or 50 ppm, and replicated three times. After spraying of the formulated test compound, each test unit was allowed to dry for 1 h and then a black, screened cap was placed on top. The test units were held for 6 days in a growth chamber at 25° C. and 70% relative humidity. Plant feeding damage was then visually assessed based on foliage consumed. […]
Test compounds were formulated and sprayed at 250 ppm and/or 50 ppm, and the tests were replicated three times as described for Test A. After spraying, the test units were allowed to dry for 1 h before they were post-infested with 5 potato leafhoppers (18-21-day-old adults). […] Each test unit was then visually assessed for insect mortality.

How did the mortality at 250 ppm turn out when `N#CC1CCN(Cc2cn(-c3cccc(C(F)(F)F)c3)nc2-c2ccc(F)cc2)CC1` [Compound 12, 1-[[3-(4-fluorophenyl)-1-[3-(trifluoromethyl)phenyl]-1H-pyrazol-4-yl]methyl]-4-piperidinecarbonitrile] was run?
Its mortality at 250 ppm is ≥ 80%.
